Measured values reported in patent publication US10125118B2, “Heteroaryl compounds and their use as therapeutic drugs” (Dong-A Socio Holdings Co., Ltd., priority 2015, dated 2018).

How the values were obtained:
[1] = target: human c-MER catalytic domain (Homo sapiens (Human), UniProt Q12866); test: LanthaScreen TR-FRET kinase assay, c-MER; conditions: read-out: Mer TK inhibition (IC50); Biochemical IC50, TR-FRET, 10 uM ATP
[2] = system: CD8-MerTK in Ba/F3-CDM cells; test: In cell MER kinase assay, Ba/F3-CDM cell proliferation without IL-3 (Celltiter-Glo); assay type: cell-based, murine; conditions: 48 hours compound treatment, read-out: Cell growth inhibition (GI50)
Description: To establish an in cell kinase assay for MerTK kinase, the IL-3 dependent Ba/F3 cells of murine lymphoid origin was transfected with CD8-MerTK. […] For a routine cellular assay, Ba/F3-CDM cells were seeded at 2,000 cells per well in 384-well cell culture plate containing DMEM/10% FBS culture media and incubated for 24 hours before addition of compounds pre-diluted in culture media. Following compound treatment, cells were further incubated for 48 hours and the proliferation was measured. To discriminate a Ba/F3 growth inhibition by a specific inhibition of MerTK kinase following compound treatment vs growth inhibition due to a non-specific unintended cytotoxicity of compounds, we routinely carried out control sets of Ba/F3 cells in parallel that grown in IL3-supplemented growth media. In the presence of IL-3, the proliferation of Ba/F3 is no longer dependent on the MerTK activity. Cell growth and proliferation was measured with Celltiter-Glo™ system (Promega, USA) according to the manufacturer's instruction. The half-maximal growth inhibitory concentration (GI50) value was calculated with Prism6.0 software (GraphPad, USA).

Chain of human c-MER catalytic domain (Q12866 587-858): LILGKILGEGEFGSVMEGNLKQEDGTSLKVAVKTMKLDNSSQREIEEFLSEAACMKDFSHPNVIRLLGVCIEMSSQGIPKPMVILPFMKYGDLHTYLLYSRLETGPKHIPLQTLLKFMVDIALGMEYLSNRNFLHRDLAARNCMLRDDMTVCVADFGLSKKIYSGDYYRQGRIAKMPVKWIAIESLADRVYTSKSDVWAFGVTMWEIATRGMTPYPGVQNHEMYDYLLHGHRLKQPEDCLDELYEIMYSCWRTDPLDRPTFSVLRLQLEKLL

Compound	IC50 [1] [nM]	GI50 [2] [nM]
Cn1cc(-c2cnc(N)c(C(=O)N[C@H]3CCC[C@@H]3OCc3ccc(-c4ccc(N5CCNCC5)nc4)cc3)c2)cn1 [Example 147, 2-amino-5-(1-methyl-1H-pyrazol-4-yl)-N-((1S,2S)-2-((4-(6-(piperazin-1-yl)pyridin-3-yl)benzyl)oxy)cyclopentyl)nicotinamide]	< 10	100 to 500
CN1CCN(c2ccc(-c3ccc(CO[C@H]4CCC[C@@H]4NC(=O)c4cc(-c5cnn(C)c5)cnc4N)cc3)cn2)CC1 [Example 148, 2-amino-5-(1-methyl-1H-pyrazol-4-yl)-N-((1S,2S)-2-((4-(6-(4-methylpiperazin-1-yl)pyridin-3-yl)benzyl)oxy)cyclopentyl)nicotinamide]	< 10	> 1000
CCc1ccc(-c2ccc(CO[C@H]3CCC[C@@H]3NC(=O)c3cc(-c4cnn(C)c4)cnc3N)cc2)cc1 [Example 153, 2-amino-N-((1S,2S)-2-((4′-ethyl-[1,1′-biphenyl]-4-yl)-methoxy)cyclopentyl)-5-(1-methyl-1H-pyrazol-4-yl)nicotinamide]	< 10	500 to 1000
CN1CCN(Cc2ccc(-c3ccc(CO[C@H]4CCC[C@@H]4NC(=O)c4cc(-c5cnn(C)c5)cnc4N)c(F)c3)cc2)CC1 [Example 156, 2-amino-N-((1S,2S)-2-((3-fluoro-4′-((4-methylpiperazin-1-yl)-methyl)-[1,1′-biphenyl]-4-yl)methoxy)cyclopentyl)-5-(1-methyl-1H-pyrazol-4-yl)-nicotinamide]	< 10	< 100
C[C@@H]1CN(Cc2ccc(-c3ccc(CO[C@H]4CCC[C@@H]4NC(=O)c4cc(-c5cnn(C)c5)cnc4N)c(F)c3)cc2)C[C@H](C)N1C [Example 157, 2-amino-N-((1S,2S)-2-((3-fluoro-4′-((cis-3,4,5-trimethylpiperazin-1-yl)methyl)-[1,1′-biphenyl]-4-yl)methoxy)cyclopentyl)-5-(1-methyl-1H-pyrazol-4-yl)-nicotinamide]	< 10	100 to 500
CN1CCN(Cc2ccc(-c3ccc(CO[C@H]4CCC[C@@H]4NC(=O)c4cc(-c5cnn(C)c5)cnc4N)cc3Cl)cc2)CC1 [Example 159, 2-amino-N-((1S,2S)-2-((2-chloro-4′-((4-methylpiperazin-1-yl)-methyl)-[1,1′-biphenyl]-4-yl)methoxy)cyclopentyl)-5-(1-methyl-1H-pyrazol-4-yl)-nicotinamide]	< 10	100 to 500
CN1CCN(CCc2ccc(-c3ccc(CO[C@H]4CCC[C@@H]4NC(=O)c4cc(-c5cnn(C)c5)cnc4N)cc3)cc2)CC1 [Example 161, 2-amino-5-(1-methyl-1H-pyrazol-4-yl)-N-((1S,2S)-2-((4′-(2-(4-methylpiperazin-1-yl)ethyl)-[1,1′-biphenyl]-4-yl)methoxy)cyclopentyl)nicotinamide]	< 10	< 100
Cn1cc(-c2cnc(N)c(C(=O)N[C@H]3CCC[C@@H]3OCc3ccc(-c4ccc(CN5CCNCC5)cc4)cc3)c2)cn1 [Example 177, 2-amino-5-(1-methyl-1H-pyrazol-4-yl)-N-((1S,2S)-2-((4′-(piperazin-1-ylmethyl)-[1,1′-biphenyl]-4-yl)methoxy)cyclopentyl)nicotinamide]	< 10	100 to 500
Cn1cc(-c2cnc(N)c(C(=O)N[C@H]3CCC[C@@H]3OCc3ccc(-c4ccc(CN5CCC(N6CCCC6)CC5)cc4)cc3)c2)cn1 [Example 179, 2-amino-5-(1-methyl-1H-pyrazol-4-yl)-N-((1S,2S)-2-((4′-((4-(pyrrolidin-1-yl)piperidin-1-yl)methyl)-[1,1′-biphenyl]-4-yl)methoxy)cyclopentyl)-nicotinamide]	< 10	100 to 500
Cn1cc(-c2cnc(N)c(C(=O)N[C@H]3CCC[C@@H]3OCc3ccc(-c4ccc(CN5CCC(O)CC5)cc4)cc3)c2)cn1 [Example 180, 2-amino-N-((1S,2S)-2-((4′-((4-hydroxypiperidin-1-yl)methyl)-[1,1′-biphenyl]-4-yl)methoxy)cyclopentyl)-5-(1-methyl-1H-pyrazol-4-yl)nicotinamide]	< 10	> 1000
Cn1cc(-c2cnc(N)c(C(=O)N[C@H]3CCC[C@@H]3OCc3ccc(-c4ccc(CN5CCN(CCO)CC5)cc4)cc3)c2)cn1 [Example 181, 2-amino-N-((1S,2S)-2-((4′-((4-(2-hydroxyethyl)piperazin-1-yl)-methyl)-[1,1′-biphenyl]-4-yl)methoxy)cyclopentyl)-5-(1-methyl-1H-pyrazol-4-yl)-nicotinamide]	< 10	< 100
Cn1cc(-c2cnc(N)c(C(=O)N[C@H]3CCC[C@@H]3OCc3ccc(-c4ccc(CN5CCN(CC(C)(C)O)CC5)cc4)cc3)c2)cn1 [Example 182, 2-amino-N-((1S,2S)-2-((4′-((4-(2-hydroxy-2-methylpropyl)-piperazin-1-yl)methyl)-[1,1′-biphenyl]-4-yl)methoxy)cyclopentyl)-5-(1-methyl-1H-pyrazol-4-yl)nicotinamide]	< 10	< 100
CCN1CCN(Cc2ccc(-c3ccc(CO[C@H]4CCC[C@@H]4NC(=O)c4cc(-c5cnn(C)c5)cnc4N)cc3)cc2)CC1 [Example 183, 2-amino-N-((1S,2S)-2-((4′-((4-ethylpiperazin-1-yl)methyl)-[1,1′-biphenyl]-4-yl)methoxy)cyclopentyl)-5-(1-methyl-1H-pyrazol-4-yl)nicotinamide]	< 10	< 100
Cn1cc(-c2cnc(N)c(C(=O)N[C@H]3CCC[C@@H]3OCc3ccc(-c4ccc(CN5CCN(C6CC6)CC5)cc4)cc3)c2)cn1 [Example 184, 2-amino-N-((1S,2S)-2-((4′-((4-cyclopropylpiperazin-1-yl)methyl)-[1,1′-biphenyl]-4-yl)methoxy)cyclopentyl)-5-(1-methyl-1H-pyrazol-4-yl)nicotinamide]	< 10	< 100
C[C@@H]1CN(Cc2ccc(-c3ccc(CO[C@H]4CCC[C@@H]4NC(=O)c4cc(-c5cnn(C)c5)cnc4N)cc3)cc2)CCN1 [Example 185, 2-amino-5-(1-methyl-1H-pyrazol-4-yl)-N-((1S,2S)-2-((4′-(((R)-3-methylpiperazin-1-yl)methyl)-[1,1′-biphenyl]-4-yl)methoxy)cyclopentyl)nicotinamide]	< 10	100 to 500
C[C@@H]1CN(Cc2ccc(-c3ccc(CO[C@H]4CCC[C@@H]4NC(=O)c4cc(-c5cnn(C)c5)cnc4N)cc3)cc2)CCN1C [Example 186, 2-amino-N-((1S,2S)-2-((4′-(((R)-3,4-dimethylpiperazin-1-yl)-methyl)-[1,1′-biphenyl]-4-yl)methoxy)cyclopentyl)-5-(1-methyl-1H-pyrazol-4-yl)-nicotinamide]	< 10	< 100
C[C@@H]1CN(C)CCN1Cc1ccc(-c2ccc(CO[C@H]3CCC[C@@H]3NC(=O)c3cc(-c4cnn(C)c4)cnc3N)cc2)cc1 [Example 187, 2-amino-N-((1S,2S)-2-((4′-(((R)-2,4-dimethylpiperazin-1-yl)-methyl)-[1,1′-biphenyl]-4-yl)methoxy)cyclopentyl)-5-(1-methyl-1H-pyrazol-4-yl)-nicotinamide]	< 10	< 100
CCC1CN(Cc2ccc(-c3ccc(CO[C@H]4CCC[C@@H]4NC(=O)c4cc(-c5cnn(C)c5)cnc4N)cc3)cc2)CCN1C (stereo partly drawn) [Example 188, 2-amino-N-((1S,2S)-2-((4′-((3-ethyl-4-methylpiperazin-1-yl)-methyl)-[1,1′-biphenyl]-4-yl)methoxy)cyclopentyl)-5-(1-methyl-1H-pyrazol-4-yl)-nicotinamide]	< 10	< 100
C[C@@H]1CN(Cc2ccc(-c3ccc(CO[C@H]4CCC[C@@H]4NC(=O)c4cc(-c5cnn(C)c5)cnc4N)cc3)cc2)C[C@H](C)N1 [Example 189, 2-amino-N-((1S,2S)-2-((4′-((cis-3,5-dimethylpiperazin-1-yl)-methyl)-[1,1′-biphenyl]-4-yl)methoxy)cyclopentyl)-5-(1-methyl-1H-pyrazol-4-yl)-nicotinamide]	< 10	100 to 500
C[C@@H]1CN(Cc2ccc(-c3ccc(CO[C@H]4CCC[C@@H]4NC(=O)c4cc(-c5cnn(C)c5)cnc4N)cc3)cc2)C[C@H](C)N1C [Example 190, 2-amino-5-(1-methyl-1H-pyrazol-4-yl)-N-((1S,2S)-2-((4′-((cis-3,4,5-trimethylpiperazin-1-yl)methyl)-[1,1′-biphenyl]-4-yl)methoxy)cyclopentyl)-nicotinamide]	< 10	< 100
CC1CN[C@@H](C)CN1Cc1ccc(-c2ccc(CO[C@H]3CCC[C@@H]3NC(=O)c3cc(-c4cnn(C)c4)cnc3N)cc2)cc1 (stereo partly drawn) [Example 191, 2-amino-N-((1S,2S)-2-((4′-((trans-2,5-dimethylpiperazin-1-yl)methyl)-[1,1′-biphenyl]-4-yl)methoxy)cyclopentyl)-5-(1-methyl-1H-pyrazol-4-yl)nicotinamide]	< 10	100 to 500
C[C@@H]1CN(C)[C@@H](C)CN1Cc1ccc(-c2ccc(CO[C@H]3CCC[C@@H]3NC(=O)c3cc(-c4cnn(C)c4)cnc3N)cc2)cc1 [Example 192, 2-amino-5-(1-methyl-1H-pyrazol-4-yl)-N-((1S,2S)-2-((4′-(((2R,5S)-2,4,5-trimethylpiperazin-1-yl)methyl)-[1,1′-biphenyl]-4-yl)methoxy)cyclopentyl)nicotinamide]	< 10	< 100
